For the assay, the system named is psoriatic knee pain. As to the kind of experiment: Example 66: analgesic effect on psoriatic knee pain, topical. It is filed as in vivo, human. Particulars: 0.5% (w/v) in WEP442, topical. The text has this: A person with plaque psoriasis of the scalp, elbows and knees for about 10 years had pain in their knees for the past 4-5 years. The knee pain had gradually worsened. […] After hiking for several hours, the knee pain sometimes re-occurred, but it was immediately relieved by topical application of the above solution composition.

As to `CC(=O)N[C@@H](Cc1ccc(O)cc1)C(=O)N1CCC[C@H]1C(=O)N[C@@H](Cc1ccccc1)C(=O)N[C@@H](Cc1ccccc1)C(N)=O` [N-Ac-Tyr-Pro-Phe-Phe-NH2], the “duration of pain relief” value is listed as “about 6 hours” and the pain relief result is given as “relieved their knee pain”.

These data come from US20190248834A1, “ENDOMORPHIN-2, TETRAPEPTIDE DERIVATIVES THEREOF, AND USES THEREOF” (priority 2016, published 2019).
